Drawing on PubChem BioAssay AID256 (DTP/NCI, 2004), this text covers T/C for 21 compounds.

Toxic doses and inconclusive results are not listed.

This assay deals with CD2F1 mice, L1210 leukemia ip, survival T/C. The assay can be described thus: NCI In Vivo Anticancer Drug Screen. Data for tumor model L1210 Leukemia (intraperitoneal) in CD2F1 (CDF1) mice. The note with it: higher = longer survival. In outline: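 Antitumor effect is scored in animals hosting a serially transplanted tumor. Values compare compound-dosed animals against vehicle-only controls as a simple quotient.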

Where [1] appears, read: endpoint: mean survival time, dose: 12.5 mg/kg/injection, schedule: Q01DX009 (ip), vehicle: Klucel (hydroxypropylcellulose) (HPC).
Setting [2] is: endpoint: mean survival time, dose: 25.0 mg/kg/injection, schedule: Q01DX009 (ip), vehicle: Klucel (hydroxypropylcellulose) (HPC).
Where [3] appears, read: endpoint: mean survival time, dose: 100.0 mg/kg/injection, schedule: Q04DX003 (ip), vehicle: saline with Tween-80.
[4] abbreviates: endpoint: mean survival time, dose: 200.0 mg/kg/injection, schedule: Q04DX003 (ip), vehicle: saline with Tween-80.
Setting [5] is: endpoint: mean survival time, dose: 25.0 mg/kg/injection, schedule: Q04DX003 (ip), vehicle: saline with Tween-80.
[6] abbreviates: endpoint: mean survival time, dose: 50.0 mg/kg/injection, schedule: Q04DX003 (ip), vehicle: saline with Tween-80.
[7] abbreviates: endpoint: mean survival time, dose: 100.0 mg/kg/injection, schedule: Q01DX009 (ip), vehicle: saline with Tween-80.
The mark [8] stands for this setting: endpoint: mean survival time, dose: 200.0 mg/kg/injection, schedule: Q01DX009 (ip), vehicle: saline with Tween-80.
[9] abbreviates: endpoint: mean survival time, dose: 400.0 mg/kg/injection, schedule: Q01DX009 (ip), vehicle: saline with Tween-80.
Setting [10] is: endpoint: mean survival time, dose: 400.0 mg/kg/injection, schedule: Q04DX003 (ip), vehicle: saline with Tween-80.

For `CC/C(=N/NS(=O)(=O)c1ccc(C)cc1)C(=O)O`, the T/C under setting [1] was 101 % of control; the T/C under setting [2] is 98 % of control; the T/C (endpoint: mean survival time, dose: 50.0 mg/kg/injection, schedule: Q01DX009 (ip), vehicle: Klucel (hydroxypropylcellulose) (HPC)) was 91 % of control; the T/C (endpoint: mean survival time, dose: 100.0 mg/kg/injection, schedule: Q01DX009 (ip), vehicle: Klucel (hydroxypropylcellulose) (HPC)) was 96 % of control; the T/C (endpoint: mean survival time, dose: 200.0 mg/kg/injection, schedule: Q01DX009 (ip), vehicle: Klucel (hydroxypropylcellulose) (HPC)) is 93 % of control; the T/C (endpoint: mean survival time, dose: 400.0 mg/kg/injection, schedule: Q01DX009 (ip), vehicle: Klucel (hydroxypropylcellulose) (HPC)) was 91 % of control.
On to `COc1ccc(C(=O)NNC(=O)c2ccc(OC)cc2)cc1`, for which the T/C is 108 % of control (endpoint: mean survival time, dose: 100.0 mg/kg/injection, schedule: Q01DX001 (ip), vehicle: Klucel (hydroxypropylcellulose) (HPC)); 104 % of control (endpoint: mean survival time, dose: 200.0 mg/kg/injection, schedule: Q01DX001 (ip), vehicle: Klucel (hydroxypropylcellulose) (HPC)); 100 % of control (endpoint: mean survival time, dose: 400.0 mg/kg/injection, schedule: Q01DX001 (ip), vehicle: Klucel (hydroxypropylcellulose) (HPC)).
In the case of `CC12CCC(CC1CO)C2` (configuration not stated), the T/C is, setting by setting: under setting [3], 88 % of control; under setting [4], 87 % of control.
For `CCOC(=O)/C(=C\c1ccccc1Cl)C(C)=O`, the T/C under setting [5] is 103 % of control; the T/C under setting [6] was 96 % of control; the T/C under setting [7] is 103 % of control; the T/C under setting [3] was 96 % of control; the T/C under setting [8] was 108 % of control; the T/C under setting [4] is 107 % of control. The T/C under setting [9] is 87 % of control.
On to `CC1(C)OC2C(COC(=O)Oc3ccccc3)OC(n3cnc4c(=O)[nH]cnc43)C2O1` (configuration not stated), for which the T/C by setting is: (endpoint: mean survival time, dose: 100.0 mg/kg/injection, schedule: Q01DX001 (ip), vehicle: saline with Tween-80) 101 % of control; (endpoint: mean survival time, dose: 100.0 mg/kg/injection, schedule: Q04DX002 (ip), vehicle: saline with Tween-80) 102 % of control; (endpoint: mean survival time, dose: 200.0 mg/kg/injection, schedule: Q01DX001 (ip), vehicle: saline with Tween-80) 97 % of control; (endpoint: mean survival time, dose: 200.0 mg/kg/injection, schedule: Q04DX002 (ip), vehicle: saline with Tween-80) 94 % of control; (endpoint: mean survival time, dose: 400.0 mg/kg/injection, schedule: Q01DX001 (ip), vehicle: saline with Tween-80) 94 % of control; (endpoint: mean survival time, dose: 400.0 mg/kg/injection, schedule: Q04DX002 (ip), vehicle: saline with Tween-80) 97 % of control.
Turning to `CC(CO)CC/C(=N\O)C(C)C1/C(=N/O)CC2C=C3CC(O)CCC3(C)CC21C` (configuration not stated), the T/C under setting [3] was 92 % of control, the T/C under setting [4] is 92 % of control and the T/C under setting [10] is 87 % of control.
As to `O=C(O)CCC(NC(=O)OCc1ccccc1)C(=O)O` (configuration not stated), the T/C is, setting by setting: under setting [7], 98 % of control; under setting [8], 94 % of control; under setting [9], 96 % of control.
Regarding `COc1cc(C2CC(C)(O)Oc3cc4c(cc32)OCO4)cc(OC)c1OC` (configuration not stated), the T/C reads like this: (endpoint: median survival time, dose: 25.0 mg/kg/injection, schedule: Q01DX005 (ip), vehicle: saline with Tween-80) 106 % of control; (endpoint: median survival time, dose: 50.0 mg/kg/injection, schedule: Q01DX005 (ip), vehicle: saline with Tween-80) 114 % of control; (endpoint: median survival time, dose: 86.0 mg/kg/injection, schedule: Q01DX005 (ip), vehicle: saline with Tween-80) 119 % of control; (endpoint: median survival time, dose: 100.0 mg/kg/injection, schedule: Q01DX005 (ip), vehicle: saline with Tween-80) 110 % of control; (endpoint: median survival time, dose: 144.0 mg/kg/injection, schedule: Q01DX005 (ip), vehicle: saline with Tween-80) 160 % of control; (endpoint: median survival time, dose: 200.0 mg/kg/injection, schedule: Q01DX005 (ip), vehicle: saline with Tween-80) 102 % of control. The T/C (endpoint: median survival time, dose: 240.0 mg/kg/injection, schedule: Q01DX005 (ip), vehicle: saline with Tween-80) was 102 % of control.
Turning to `O=C1C=C(CCc2ccccc2)CCC1`, the T/C reads like this: under setting [7], 107 % of control; under setting [8], 107 % of control; under setting [9], 108 % of control.
For the compound `OCC1CCC(CO)CC1` (configuration not stated), the T/C is, setting by setting: (endpoint: mean survival time, dose: 6.25 mg/kg/injection, schedule: Q01DX009 (ip), vehicle: Klucel (hydroxypropylcellulose) (HPC)) 100 % of control; under setting [1], 95 % of control; under setting [2], 103 % of control.
As to `CSC#N`, the T/C was 102 % of control (endpoint: mean survival time, dose: 5.0 mg/kg/injection, schedule: Q01DX009 (ip), vehicle: Klucel (hydroxypropylcellulose) (HPC)) and 102 % of control (endpoint: mean survival time, dose: 10.0 mg/kg/injection, schedule: Q01DX009 (ip), vehicle: Klucel (hydroxypropylcellulose) (HPC)).
For `COC(=O)C1CC23C=CCN4CC(C2C)C2(c5ccccc5NC12)C43` (configuration not stated), the T/C by setting is: (endpoint: mean survival time, dose: 8.0 mg/kg/injection, schedule: Q01DX001 (ip), vehicle: saline) 102 % of control; (endpoint: mean survival time, dose: 16.0 mg/kg/injection, schedule: Q01DX001 (ip), vehicle: saline) 96 % of control; (endpoint: mean survival time, dose: 32.0 mg/kg/injection, schedule: Q01DX001 (ip), vehicle: saline) 102 % of control; (endpoint: mean survival time, dose: 64.0 mg/kg/injection, schedule: Q01DX001 (ip), vehicle: saline) 101 % of control.
For the compound `CCN(CC)c1cc(Cl)ccc1C`, the T/C is 98 % of control (endpoint: mean survival time, dose: 12.5 mg/kg/injection, schedule: Q04DX002 (ip), vehicle: saline with Tween-80); 95 % of control (endpoint: mean survival time, dose: 25.0 mg/kg/injection, schedule: Q04DX002 (ip), vehicle: saline with Tween-80); 98 % of control (endpoint: mean survival time, dose: 50.0 mg/kg/injection, schedule: Q04DX002 (ip), vehicle: saline with Tween-80); 101 % of control (endpoint: mean survival time, dose: 100.0 mg/kg/injection, schedule: Q01DX001 (ip), vehicle: saline sonified); 95 % of control (endpoint: mean survival time, dose: 200.0 mg/kg/injection, schedule: Q01DX001 (ip), vehicle: saline sonified); 86 % of control (endpoint: mean survival time, dose: 400.0 mg/kg/injection, schedule: Q01DX001 (ip), vehicle: saline sonified).
As to `Nc1ccc(/C=C/c2ccnc3ccccc23)cc1`, the T/C is, setting by setting: (endpoint: mean survival time, dose: 4.0 mg/kg/injection, schedule: Q01DX Z (ip), vehicle: saline) 104 % of control; (endpoint: mean survival time, dose: 8.0 mg/kg/injection, schedule: Q01DX Z (ip), vehicle: saline) 101 % of control; (endpoint: mean survival time, dose: 16.0 mg/kg/injection, schedule: Q01DX Z (ip), vehicle: saline) 98 % of control.
`CC1OC(c2cnn(-c3ccccc3)n2)C(O)C1O` (configuration not stated): the T/C reads like this: (endpoint: median survival time, dose: 12.5 mg/kg/injection, schedule: Q01DX005 (ip), vehicle: water) 103 % of control; (endpoint: median survival time, dose: 25.0 mg/kg/injection, schedule: Q01DX005 (ip), vehicle: water) 102 % of control; (endpoint: median survival time, dose: 50.0 mg/kg/injection, schedule: Q01DX005 (ip), vehicle: water) 103 % of control; (endpoint: median survival time, dose: 100.0 mg/kg/injection, schedule: Q01DX005 (ip), vehicle: water) 100 % of control; (endpoint: median survival time, dose: 200.0 mg/kg/injection, schedule: Q01DX005 (ip), vehicle: water) 103 % of control.
With `O=c1[nH]cnc2[nH]ccc12`, the T/C is, setting by setting: (endpoint: mean survival time, dose: 75.0 mg/kg/injection, schedule: Q01DX001 (ip), vehicle: saline) 110 % of control; (endpoint: mean survival time, dose: 150.0 mg/kg/injection, schedule: Q01DX001 (ip), vehicle: saline) 96 % of control.
With `CC(C)(C)N/C(=C/C(=O)c1ccccc1)c1ccccc1`, the T/C was 94 % of control under setting [3], 96 % of control under setting [4] and 95 % of control under setting [10].
`Cc1c2cnccc2c(C)c2c1c1ccccc1n2CCCCCCCl`: the T/C under setting [3] was 91 % of control and the T/C under setting [4] was 101 % of control.
In the case of `COc1ccc([I+]c2ccc(OC)cc2)cc1`, the T/C is 101 % of control (endpoint: mean survival time, dose: 1.5 mg/kg/injection, schedule: Q01DX009 (ip), vehicle: saline with Tween-80); 104 % of control (endpoint: mean survival time, dose: 3.0 mg/kg/injection, schedule: Q01DX009 (ip), vehicle: saline with Tween-80); 107 % of control (endpoint: mean survival time, dose: 6.0 mg/kg/injection, schedule: Q01DX009 (ip), vehicle: saline with Tween-80); 97 % of control (endpoint: mean survival time, dose: 12.5 mg/kg/injection, schedule: Q04DX003 (ip), vehicle: saline with Tween-80); 93 % of control under setting [5]; 93 % of control under setting [6].
As to `N#CCC(=O)NN=C1CCCCC1`, the T/C by setting is: (endpoint: mean survival time, dose: 100.0 mg/kg/injection, schedule: Q01DX001 (ip), vehicle: saline) 102 % of control; (endpoint: mean survival time, dose: 200.0 mg/kg/injection, schedule: Q01DX001 (ip), vehicle: saline) 123 % of control; (endpoint: mean survival time, dose: 400.0 mg/kg/injection, schedule: Q01DX001 (ip), vehicle: saline) 107 % of control.
In the case of `O=NN(CC(=O)N/N=C\c1ccc(Cl)cc1)CC(=O)N/N=C/c1ccc(Cl)cc1`, the T/C under setting [7] was 91 % of control, the T/C under setting [8] is 94 % of control and the T/C under setting [9] was 96 % of control.
